Experimental data as given in the supplement of paper PMC4954754.
± gives the uncertainty stated by the source.

Tests used:
Settings in all cases: 18 h
HEK293T-Rex ERSE-FLuc [1] = assay: EC50 for ERSE-FLuc reporter activation
Experimental: (§1)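 Dose-response of hit compounds in HEK293T-Rex cells stably expressing ERSE-FLuc or XBP1-RLuc reporters, 18 hr treatment, 1536-well; luminescence normalised to 500 nM thapsigargin (100%) and DMSO (0%), fitted to give EC50 (M) and maximal activation; '>' marks EC50 above the top tested dose (~17 µM).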

HEK293T-Rex XBP1-RLuc [2] = assay: maximal XBP1-RLuc activation from dose-response fit, relative to thapsigargin (% of thapsigargin); higher = stronger activation
Experimental: as §1

HEK293T-Rex XBP1-RLuc [3] = assay: EC50 for XBP1-RLuc reporter activation
Experimental: as §1

HEK293T-Rex ERSE-FLuc [4] = assay: maximal ERSE-FLuc activation from dose-response fit, relative to thapsigargin (% of thapsigargin); higher = stronger activation
Experimental: as §1

Compound	EC50 for ERSE-FLuc reporter activation (HEK293T-Rex ERSE-FLuc [1]) [µM]	maximal XBP1-RLuc activation (HEK293T-Rex XBP1-RLuc [2])	EC50 for XBP1-RLuc reporter activation (HEK293T-Rex XBP1-RLuc [3]) [µM]	maximal ERSE-FLuc activation (HEK293T-Rex ERSE-FLuc [4])
COc1ccc(/C=C(\C#N)c2nc(-c3ccco3)cs2)cc1O	> 16.7	14.5 ± 4.2	> 16.7	32.9 ± 2.9
CCCc1cc(C(=O)Nc2cc(C)ccc2O)no1	2.84	30 ± 2.2	> 16.9	116 ± 9.5
N#C/C(=C(/O)c1cc(-c2ccccc2)nc2ccccc12)c1nc2ccccc2[nH]1	> 15.9	17.9 ± 1.4	> 15.9	24.8 ± 8.7
Cc1ccc(O)c(NC(=O)CSc2n[nH]c(C)c2[N+](=O)[O-])c1	5.79	37.4 ± 7.3	> 16.9	98.8 ± 16
Cc1ccc2c(N)c(C(=O)c3ccc4c(c3)OCO4)sc2n1	> 16.9	11.4 ± 3.8	> 16.9	25.1 ± 2.7
Oc1cccc(Nc2nc(-c3ccc(O)c(O)c3)cs2)c1	12.5	51.6 ± 3.2	16.5	83.3 ± 11
O=C(NCCc1ccc(O)cc1)c1ccc2nc(-c3csc4ccccc34)sc2c1	11.6	105 ± 13	13.3	99.4 ± 20
CCc1ccc(NC(=O)/C=C/c2ccco2)cc1	> 16.8	4.4 ± 8.8	> 16.8	19.3 ± 2.3
CNC(=O)c1ccccc1Nc1cc(NC(=O)Cc2ccc(F)c(F)c2)ncc1C(F)(F)F	> 16.9	2.4 ± 1.1	> 16.9	3.28 ± 7.2
CCN1C(=O)/C(=C\c2ccc(O)cc2O)SC1=S	> 16.9	13.3 ± 1.5	> 16.9	30.9 ± 10
Nc1nc(Nc2ccc(Cl)c(Cl)c2)nc2ccccc12	7.93	61.9 ± 4	12.3	138 ± 11
COc1cn(-c2ccc(F)cc2)nc1C(=O)Nc1ccccc1SC	6.64	40.2 ± 0.22	> 16.9	80.8 ± 17
O=C(/C=C/c1ccccc1)Nc1ccc(Br)cn1	> 13.7	4.36 ± 3.2	> 13.7	26.2 ± 3.8
COc1ccc(-c2csc(N(CC3CCCO3)C(=O)CCl)n2)cc1 (stereo unspecified)	> 16.9	10.3 ± 0.8	> 16.9	17.5 ± 3.4
COc1ccccc1/C=C/C(=O)Nc1ccc(Cl)cn1	> 15.1	8.83 ± 0.86	> 15.1	27.3 ± 3.7
C(=N/Nc1nnc2c(n1)[nH]c1ccccc12)/c1c[nH]c2ccccc12	> 16.9	26 ± 1.9	> 16.9	43.9 ± 1.3
CCN(CC)c1ccc(NC(=O)c2cccc(OC)c2)cc1	> 17.8	2.18 ± 7.1	> 17.8	29.7 ± 5.3
COc1ccc(/C=N/c2sc3c(c2C(N)=O)CCCC3)cc1	> 16.9	4.94 ± 3.8	> 16.9	20.9 ± 2
Cc1ccc(NC(=O)/C=C/c2ccco2)nc1	> 16.9	7.43 ± 1.4	> 16.9	17.5 ± 3.4
COc1cc(/C=C/c2ccc(O)c(OC)c2)ccc1O	> 16.9	72.3 ± 8.1	8.73	31.1 ± 6.9
O=c1cc(-c2ccc(O)c(O)c2)oc2ccccc12	> 17.1	43.9 ± 0.95	> 17.1	32.7 ± 5
CC(=O)Oc1ccc2cc(NC(=O)c3ccc(C)cc3)c(=O)oc2c1	> 15.1	14.6 ± 0.94	> 15.1	25.8 ± 1.6
O=[N+]([O-])c1ccc(N/N=C/c2ccccc2O)cc1	> 16.9	68.9 ± 7.5	13	44.5 ± 7.8

Compound	EC50 for ERSE-FLuc reporter activation (HEK293T-Rex ERSE-FLuc [1]) [µM]	maximal XBP1-RLuc activation (HEK293T-Rex XBP1-RLuc [2])	EC50 for XBP1-RLuc reporter activation (HEK293T-Rex XBP1-RLuc [3]) [µM]	maximal ERSE-FLuc activation (HEK293T-Rex ERSE-FLuc [4])
COc1ccc(/C=C(\C#N)c2nc3ccccc3n2C)cc1	> 16.9	0.49 ± 1.4	> 16.9	32.1 ± 2
Cc1ccc(Nc2nc(N)c3ccccc3n2)cc1Cl	10	48.1 ± 5.2	> 16.9	111 ± 7.9
COc1ccccc1OCC(=O)Nc1cc(C)ccc1O	> 16.9	22.9 ± 1.1	> 16.9	45.8 ± 4.2
CCOC(=O)c1sc(NC(=O)c2cccc3ccccc23)nc1C	> 16.9	3.29 ± 3.4	> 16.9	25.3 ± 5.7
Nc1ccc(-c2nc3cc(N)c(Cl)cc3[nH]2)cc1	> 14.7	17.6 ± 0.39	> 14.7	29.6 ± 7.5
CCOc1cc(C2C(C(=O)OC3CCCCC3)=C(C)NC3=C2C(=O)CC(c2ccc(OC)cc2)C3)cc(Br)c1O (stereo unspecified)	3.95	88.6 ± 10	5.3	70.43 ± 0.082
Nc1ccc2sc(-c3cc(Cl)c(N)c(Cl)c3)nc2c1	> 16.9	14.9 ± 1.8	> 16.9	22 ± 6.1
COc1cc2ccccc2cc1C(=O)N/N=C/c1cccs1	> 16.9	5.33 ± 6.5	> 16.9	21.5 ± 3.6
Cc1cccc2c1[nH]c1nc(N/N=C\c3c[nH]c4ccccc34)nnc12	> 16.9	32.4 ± 5.6	> 16.9	41.7 ± 12
Nc1nc(Nc2ccccc2)cc(-c2ccccc2)n1	> 17.2	3.36 ± 1.2	> 17.2	25.8 ± 9.6
C=CCn1c(N2CCC(C(=O)NCCc3ccc(O)c(O)c3)CC2)nc2ccccc21	8.27	97.8 ± 31	7.94	150 ± 16
CCOc1cccc(C(=O)Nc2ccc(-c3nc4ccc(C(=O)c5ccccc5)cc4[nH]3)cc2)c1	> 11.5	66.4 ± 12	2.33	25.2 ± 5
Cc1cc(C)c2nc3sc(C(=O)N4CCCCC4)c(N)c3cc2c1	> 16.9	13.4 ± 1.4	> 16.9	34 ± 5.5
N#C/C(=C\c1ccc(O)c(O)c1)c1nc2ccccc2[nH]1	> 16.9	25.6 ± 1.6	> 16.9	37.6 ± 12
NC(=O)c1c(NC(=O)COc2ccccc2)sc2c1CCC2	> 13.2	2.55 ± 0.7	> 13.2	16.2 ± 1.4
Nc1ccc2nc(-c3ccc(Cl)cc3)[nH]c2c1	> 5.63	35.3 ± 12	> 16.9	68.5 ± 6.7
O=C(N/N=C\C(Br)=C\c1ccccc1)c1n[nH]c2c1CCCC2	> 16.9	9.49 ± 5.7	> 16.9	17.2 ± 4.7
O=C(COC(=O)c1cc(O)c(O)c(O)c1)Nc1ccc(Br)cc1F	> 16.9	26.4 ± 2.7	> 16.9	41.7 ± 3.5
O=C1/C(=C/c2ccc(O)c(O)c2)SC(=S)N1c1ccc(O)cc1	12.4	35.5 ± 3.5	> 16.9	77.1 ± 17
Cc1cc(C)nc(/N=C(\N)Nc2ccc(OCc3ccc(Cl)cc3)cc2)n1	> 14	88.2 ± 3.4	2.03	47.3 ± 7.6
COc1cccc(/C=N/NC(=O)c2ccc(NC(=O)c3ccc(C)cc3)cc2)c1O	> 16.9	1.01 ± 1.2	> 16.9	6.5 ± 1.7
Nc1ccc2nc(/C=C/c3ccco3)[nH]c2c1	> 16.9	32.3 ± 1.3	> 16.9	27.4 ± 2.5
Cc1ccc(O)c(NC(=O)c2cc(-c3cccs3)on2)c1	2.78	32.4 ± 6.1	> 16.9	126 ± 5.9

Compound	EC50 for ERSE-FLuc reporter activation (HEK293T-Rex ERSE-FLuc [1]) [µM]	maximal XBP1-RLuc activation (HEK293T-Rex XBP1-RLuc [2])	EC50 for XBP1-RLuc reporter activation (HEK293T-Rex XBP1-RLuc [3]) [µM]	maximal ERSE-FLuc activation (HEK293T-Rex ERSE-FLuc [4])
Nc1ccccc1NC(=O)c1ccc(C(F)(F)F)cc1	9.12	37.7 ± 3.5	> 19.9	73.1 ± 8.1
CCCNC(=O)c1ccc2nc(-c3ccc4[nH]ccc4c3)sc2c1	> 17.4	2.49 ± 1.2	> 17.4	13.9 ± 6.1
Cc1ccc(O)c(NC(=S)NC(=O)/C=C/c2ccco2)c1	> 16.9	5.76 ± 1.5	> 16.9	30.2 ± 7.3
COCCNC(=O)c1cc(-c2cccs2)on1	15.5	9.6 ± 3.2	> 16.9	54.1 ± 14
O=C(N/N=C/c1cccc2ccccc12)c1ccc2c(c1)OCO2	> 16.9	0.725 ± 0.6	> 16.9	25.3 ± 5.6
CN1C(=O)/C(=C\c2ccc(O)c(O)c2)SC1=S	> 16.9	40.5 ± 3.6	> 16.9	28 ± 15
N#Cc1c(NC(=O)c2ccc3ncsc3c2)sc2c1CCC2	> 16.6	4.53 ± 1.1	> 16.6	22.2 ± 2.5
N#Cc1c(NC(=O)c2cnccn2)sc2c1CCCC2	> 17.9	4.67 ± 1.1	> 17.9	18.9 ± 4.8
COc1cccc(C(=O)Nc2sc3c(c2C#N)CC(C)CC3)c1 (stereo unspecified)	> 16.6	2.09 ± 1.1	> 16.6	23.5 ± 8
Oc1ccc(/C=N/Nc2cccc(Cl)n2)c(O)c1	> 16.9	33.6 ± 1.8	> 16.9	24.4 ± 4.8
O=C(Nc1ccccc1O)c1ccc(C(=O)c2ccccc2)cc1	7.47	15.1 ± 5.4	> 16.8	103 ± 3.3
O=C(Nc1ccc(O)cc1)c1ccc2ccccc2c1	> 16.9	16.2 ± 1.5	> 16.9	31.4 ± 2.5
COc1cccc(/C=N\NC(=O)c2n[nH]c3c2CCC3)c1	> 16.6	4.03 ± 2.5	> 16.6	25.8 ± 1.9
Cc1cc(C)c(OCC(=O)N/N=C/c2ccc(O)c(O)c2)c(Br)c1	> 16.9	41.1 ± 11	> 16.9	49.6 ± 5.9
CC(C)c1ccc(/C=N\NC(=O)c2ccccc2)cc1	> 16.9	17.7 ± 5.7	> 16.9	19.3 ± 9.1
CN(C)c1ccc(C2C(C#N)=C(N)Oc3c2sc2ccccc32)cc1[N+](=O)[O-] (stereo unspecified)	> 17.2	4.37 ± 1	> 17.2	15.8 ± 4.9
Nc1c(C(=O)Nc2ccccc2)sc2nc3c(cc12)CCCCC3	> 16.5	15.7 ± 1.2	> 16.5	29.8 ± 4.8
CCOc1cc(/C=C2/NC(=O)N(c3cccc(Cl)c3)C2=O)ccc1O	> 16.9	61.4 ± 9.7	11.9	47.5 ± 4.4
Oc1ccc(/C=N/Nc2cccc3cccnc23)c(O)c1	> 16.9	53.6 ± 5.7	9.41	36.6 ± 4.9
O=C(N/N=C/c1cccc(O)c1O)c1ccccn1	> 18.4	20.3 ± 1.1	> 18.4	25.7 ± 1.9
COc1ccc(/C(C)=N/OC/C(O)=C(\C#N)c2nc3ccccc3[nH]2)cc1OC	> 17.2	3.33 ± 0.88	> 17.2	5.39 ± 2.3
O=C1c2cc(O)ccc2-c2ccc(O)cc21	8.44	73.2 ± 6.5	8.87	65.1 ± 18
O=C(N/N=C\C(Cl)=C\c1ccccc1)c1n[nH]c2c1CCCC2	> 16.9	3.51 ± 3.7	> 16.9	19.7 ± 5.1
